Source: ChEMBL document CHEMBL4507296 (2021)

Columns and labels:
[1] = target: Peripheral plasma membrane protein CASK (Homo sapiens) (UniProt O14936); details: Compound concentration 1000.0 nM
[2] = target: Activin receptor type-1 (Homo sapiens) (UniProt Q04771); details: Compound concentration 1000.0 nM
[3] = tested on: Phosphatidylinositol 4,5-bisphosphate 3-kinase catalytic subunit alpha isoform (Homo sapiens), P42336 [C420R]; details: Compound concentration 1000.0 nM
[4] = target: Ephrin type-A receptor 4 (Homo sapiens) (UniProt P54764); details: Compound concentration 1000.0 nM
[5] = target: MAP kinase-interacting serine/threonine-protein kinase 1 (Homo sapiens) (UniProt Q9BUB5); details: Compound concentration 1000.0 nM
[6] = target: Activin receptor type-2A (Homo sapiens) (UniProt P27037); details: Compound concentration 1000.0 nM
[7] = target: Alpha-1D adrenergic receptor (Homo sapiens) (UniProt P25100); details: Compound concentration 10.0 uM
[8] = tested on: Tyrosine-protein kinase ABL1 (Homo sapiens), P00519 [F317I]; details: Compound concentration 1000.0 nM
[9] = target: Mitogen-activated protein kinase 13 (Homo sapiens) (UniProt O15264); details: Compound concentration 1000.0 nM
Chain of Mitogen-activated protein kinase 13 (Homo sapiens) (O15264 whole entry): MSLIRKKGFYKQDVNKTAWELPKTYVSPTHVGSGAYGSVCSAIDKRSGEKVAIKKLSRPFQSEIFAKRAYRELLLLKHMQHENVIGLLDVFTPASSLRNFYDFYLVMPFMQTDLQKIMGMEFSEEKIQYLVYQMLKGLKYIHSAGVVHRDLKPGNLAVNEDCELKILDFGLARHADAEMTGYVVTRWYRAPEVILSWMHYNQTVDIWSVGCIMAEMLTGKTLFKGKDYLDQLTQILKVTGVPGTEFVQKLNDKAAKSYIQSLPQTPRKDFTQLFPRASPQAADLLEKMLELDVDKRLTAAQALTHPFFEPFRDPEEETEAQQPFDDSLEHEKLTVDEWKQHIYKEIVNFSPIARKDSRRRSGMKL

[10] = target: Serine/threonine-protein kinase MARK2 (Homo sapiens) (UniProt Q7KZI7); details: Compound concentration 1000.0 nM
[11] = target: Phosphatidylinositol 4,5-bisphosphate 3-kinase catalytic subunit gamma isoform (Homo sapiens) (UniProt P48736); details: Compound concentration 1000.0 nM
[12] = target: Cyclin-dependent kinase 2 homolog (Plasmodium falciparum (isolate 3D7)) (UniProt P61075); details: Compound concentration 1000.0 nM
[13] = target: Beta-1 adrenergic receptor (Homo sapiens) (UniProt P08588); details: Compound concentration 10.0 uM
Chain of Beta-1 adrenergic receptor (Homo sapiens) (P08588 whole entry, looked up): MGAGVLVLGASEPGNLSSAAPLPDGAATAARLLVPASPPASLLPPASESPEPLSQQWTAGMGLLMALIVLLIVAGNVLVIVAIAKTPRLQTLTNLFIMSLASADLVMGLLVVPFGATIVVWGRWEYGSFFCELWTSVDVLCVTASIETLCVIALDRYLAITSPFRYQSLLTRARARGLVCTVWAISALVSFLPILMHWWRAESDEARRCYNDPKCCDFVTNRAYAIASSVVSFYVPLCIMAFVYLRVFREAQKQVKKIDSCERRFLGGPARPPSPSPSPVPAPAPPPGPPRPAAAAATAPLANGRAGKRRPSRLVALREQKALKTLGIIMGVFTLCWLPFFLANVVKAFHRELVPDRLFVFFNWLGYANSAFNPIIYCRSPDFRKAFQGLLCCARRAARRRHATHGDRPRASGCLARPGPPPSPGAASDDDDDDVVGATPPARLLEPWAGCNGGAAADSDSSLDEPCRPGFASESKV

[14] = target: MAP/microtubule affinity-regulating kinase 3 (Homo sapiens) (UniProt P27448); details: Compound concentration 1000.0 nM
[15] = target: Tyrosine-protein kinase receptor Tie-1 (Homo sapiens) (UniProt P35590); details: Compound concentration 1000.0 nM
Chain of Tyrosine-protein kinase receptor Tie-1 (Homo sapiens) (P35590 whole entry): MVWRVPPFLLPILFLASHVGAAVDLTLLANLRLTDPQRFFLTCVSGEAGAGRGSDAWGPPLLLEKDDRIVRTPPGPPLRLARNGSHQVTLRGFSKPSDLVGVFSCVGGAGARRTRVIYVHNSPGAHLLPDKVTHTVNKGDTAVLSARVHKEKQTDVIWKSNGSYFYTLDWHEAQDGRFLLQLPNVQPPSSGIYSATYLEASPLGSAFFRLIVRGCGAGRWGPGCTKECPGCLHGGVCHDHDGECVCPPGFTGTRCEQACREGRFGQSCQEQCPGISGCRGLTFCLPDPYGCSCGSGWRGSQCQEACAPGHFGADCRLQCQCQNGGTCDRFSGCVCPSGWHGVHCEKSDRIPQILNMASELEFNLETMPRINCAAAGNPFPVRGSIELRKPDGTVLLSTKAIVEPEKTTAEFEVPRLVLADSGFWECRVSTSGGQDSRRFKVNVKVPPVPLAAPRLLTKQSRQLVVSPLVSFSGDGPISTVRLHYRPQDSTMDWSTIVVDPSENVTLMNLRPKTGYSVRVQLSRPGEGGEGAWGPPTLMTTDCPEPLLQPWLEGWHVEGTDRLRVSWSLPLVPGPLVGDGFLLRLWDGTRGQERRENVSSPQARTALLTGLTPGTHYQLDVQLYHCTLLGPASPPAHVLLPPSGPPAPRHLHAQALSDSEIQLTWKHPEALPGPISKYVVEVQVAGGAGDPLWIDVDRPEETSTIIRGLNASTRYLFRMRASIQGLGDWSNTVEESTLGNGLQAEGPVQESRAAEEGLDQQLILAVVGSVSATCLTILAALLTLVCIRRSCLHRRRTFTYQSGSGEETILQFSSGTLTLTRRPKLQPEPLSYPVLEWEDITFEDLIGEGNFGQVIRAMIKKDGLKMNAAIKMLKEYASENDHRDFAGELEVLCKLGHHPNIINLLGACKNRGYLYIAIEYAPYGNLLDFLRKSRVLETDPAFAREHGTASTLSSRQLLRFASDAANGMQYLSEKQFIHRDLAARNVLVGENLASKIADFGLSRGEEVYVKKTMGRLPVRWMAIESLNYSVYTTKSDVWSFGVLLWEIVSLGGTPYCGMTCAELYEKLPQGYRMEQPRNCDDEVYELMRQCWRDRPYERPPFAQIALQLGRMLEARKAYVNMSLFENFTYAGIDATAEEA

[16] = target: 5-hydroxytryptamine receptor 3A (Homo sapiens) (UniProt P46098); details: Compound concentration 10.0 uM
[17] = tested on: Epidermal growth factor receptor (Homo sapiens), P00533 [UNDEFINED MUTATION]; details: Compound concentration 1000.0 nM
[18] = target: Receptor-type tyrosine-protein kinase FLT3 (Homo sapiens) (UniProt P36888); details: Compound concentration 1000.0 nM
[19] = target: Leukocyte tyrosine kinase receptor (Homo sapiens) (UniProt P29376); details: Compound concentration 1000.0 nM
[20] = target: D(2) dopamine receptor (Homo sapiens) (UniProt P14416); details: Compound concentration 10.0 uM
[21] = target: Tyrosine-protein kinase Lyn (Homo sapiens) (UniProt P07948); details: Compound concentration 1000.0 nM
[22] = target: Serine/threonine-protein kinase 16 (Homo sapiens) (UniProt O75716); details: Compound concentration 1000.0 nM
[23] = target: High affinity choline transporter 1 (Homo sapiens) (UniProt Q9GZV3); experiment: Choline transporter 1 (human) CEREP ligand profiling; details: Compound concentration 10.0 uM
[24] = target: Cyclin-dependent kinase 4 (Homo sapiens) (UniProt P11802); details: Compound concentration 1000.0 nM
[25] = target: Homeodomain-interacting protein kinase 3 (Homo sapiens) (UniProt Q9H422); details: Compound concentration 1000.0 nM
[26] = target: TGF-beta receptor type-1 (Homo sapiens) (UniProt P36897); details: Compound concentration 1000.0 nM
[27] = target: Cyclin-dependent kinase-like 2 (Homo sapiens) (UniProt Q92772); details: Compound concentration 1000.0 nM
[28] = target: Platelet-derived growth factor receptor beta (Homo sapiens) (UniProt P09619); details: Compound concentration 1000.0 nM
[29] = target: AP2-associated protein kinase 1 (Homo sapiens) (UniProt Q2M2I8); details: Compound concentration 1000.0 nM
[30] = target: Dual specificity protein kinase CLK4 (Homo sapiens) (UniProt Q9HAZ1); details: Compound concentration 1000.0 nM
[31] = target: Cyclin-dependent kinase 3 (Homo sapiens) (UniProt Q00526); details: Compound concentration 1000.0 nM
[32] = target: Serine/threonine-protein kinase TBK1 (Homo sapiens) (UniProt Q9UHD2); details: Compound concentration 1000.0 nM
[33] = target: NUAK family SNF1-like kinase 1 (Homo sapiens) (UniProt O60285); details: Compound concentration 1000.0 nM
[34] = target: Mitotic checkpoint serine/threonine-protein kinase BUB1 (Homo sapiens) (UniProt O43683); details: Compound concentration 1000.0 nM
[35] = target: Tyrosine-protein kinase ABL1 (Homo sapiens) (UniProt P00519); details: Compound concentration 1000.0 nM
[36] = tested on: Phosphatidylinositol 4,5-bisphosphate 3-kinase catalytic subunit alpha isoform (Homo sapiens), P42336 [E545A]; details: Compound concentration 1000.0 nM
Chain of Phosphatidylinositol 4,5-bisphosphate 3-kinase catalytic subunit alpha isoform (Homo sapiens), P42336 [E545A] (P42336 whole entry E545A, canonical isoform): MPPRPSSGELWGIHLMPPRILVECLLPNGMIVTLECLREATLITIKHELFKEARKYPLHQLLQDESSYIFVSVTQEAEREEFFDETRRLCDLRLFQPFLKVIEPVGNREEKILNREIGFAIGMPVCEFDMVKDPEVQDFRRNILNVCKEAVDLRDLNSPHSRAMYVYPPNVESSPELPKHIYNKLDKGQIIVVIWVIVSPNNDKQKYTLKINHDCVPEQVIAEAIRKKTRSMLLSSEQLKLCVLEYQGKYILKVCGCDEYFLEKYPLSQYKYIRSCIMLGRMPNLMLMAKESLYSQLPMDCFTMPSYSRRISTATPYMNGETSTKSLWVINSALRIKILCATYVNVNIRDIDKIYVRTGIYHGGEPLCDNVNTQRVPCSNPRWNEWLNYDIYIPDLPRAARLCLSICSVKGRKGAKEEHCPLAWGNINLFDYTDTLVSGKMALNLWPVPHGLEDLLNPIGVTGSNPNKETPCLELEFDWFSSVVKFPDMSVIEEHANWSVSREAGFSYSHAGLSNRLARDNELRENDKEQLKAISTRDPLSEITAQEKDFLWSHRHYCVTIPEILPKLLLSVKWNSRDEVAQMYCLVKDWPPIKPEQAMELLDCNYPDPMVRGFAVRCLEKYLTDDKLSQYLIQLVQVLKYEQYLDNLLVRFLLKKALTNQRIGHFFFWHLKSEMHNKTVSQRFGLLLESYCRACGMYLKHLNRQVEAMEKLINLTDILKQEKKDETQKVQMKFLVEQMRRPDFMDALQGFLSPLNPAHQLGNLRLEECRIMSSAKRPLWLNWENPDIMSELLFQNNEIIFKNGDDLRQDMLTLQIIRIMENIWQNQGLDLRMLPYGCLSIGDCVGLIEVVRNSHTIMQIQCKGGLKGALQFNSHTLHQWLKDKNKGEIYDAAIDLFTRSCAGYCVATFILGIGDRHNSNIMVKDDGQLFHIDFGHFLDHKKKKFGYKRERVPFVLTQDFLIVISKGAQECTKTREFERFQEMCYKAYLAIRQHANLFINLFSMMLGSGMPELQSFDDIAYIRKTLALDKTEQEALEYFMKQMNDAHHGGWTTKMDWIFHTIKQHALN

[37] = target: Serine/threonine-protein kinase Nek4 (Homo sapiens) (UniProt P51957); details: Compound concentration 1000.0 nM
[38] = tested on: Tyrosine-protein kinase ABL1 (Homo sapiens), P00519 [Y253F]; details: Compound concentration 1000.0 nM
[39] = target: Histamine H2 receptor (Homo sapiens) (UniProt P25021); details: Compound concentration 10.0 uM
[40] = target: Activin receptor type-1-like (Homo sapiens) (UniProt P37023); details: Compound concentration 1000.0 nM
[41] = target: Mu-type opioid receptor (Homo sapiens) (UniProt P35372); experiment: m-Opioid (human) CEREP ligand profiling; details: Compound concentration 10.0 uM
[42] = target: Glycogen synthase kinase-3 alpha (Homo sapiens) (UniProt P49840); details: Compound concentration 1000.0 nM
[43] = target: Calcium/calmodulin-dependent protein kinase type II subunit alpha (Homo sapiens) (UniProt Q9UQM7); details: Compound concentration 1000.0 nM
[44] = tested on: Proto-oncogene tyrosine-protein kinase receptor Ret (Homo sapiens), P07949 [V804M]; details: Compound concentration 1000.0 nM
Chain of Proto-oncogene tyrosine-protein kinase receptor Ret (Homo sapiens), P07949 [V804M] (P07949 whole entry V804M, canonical isoform): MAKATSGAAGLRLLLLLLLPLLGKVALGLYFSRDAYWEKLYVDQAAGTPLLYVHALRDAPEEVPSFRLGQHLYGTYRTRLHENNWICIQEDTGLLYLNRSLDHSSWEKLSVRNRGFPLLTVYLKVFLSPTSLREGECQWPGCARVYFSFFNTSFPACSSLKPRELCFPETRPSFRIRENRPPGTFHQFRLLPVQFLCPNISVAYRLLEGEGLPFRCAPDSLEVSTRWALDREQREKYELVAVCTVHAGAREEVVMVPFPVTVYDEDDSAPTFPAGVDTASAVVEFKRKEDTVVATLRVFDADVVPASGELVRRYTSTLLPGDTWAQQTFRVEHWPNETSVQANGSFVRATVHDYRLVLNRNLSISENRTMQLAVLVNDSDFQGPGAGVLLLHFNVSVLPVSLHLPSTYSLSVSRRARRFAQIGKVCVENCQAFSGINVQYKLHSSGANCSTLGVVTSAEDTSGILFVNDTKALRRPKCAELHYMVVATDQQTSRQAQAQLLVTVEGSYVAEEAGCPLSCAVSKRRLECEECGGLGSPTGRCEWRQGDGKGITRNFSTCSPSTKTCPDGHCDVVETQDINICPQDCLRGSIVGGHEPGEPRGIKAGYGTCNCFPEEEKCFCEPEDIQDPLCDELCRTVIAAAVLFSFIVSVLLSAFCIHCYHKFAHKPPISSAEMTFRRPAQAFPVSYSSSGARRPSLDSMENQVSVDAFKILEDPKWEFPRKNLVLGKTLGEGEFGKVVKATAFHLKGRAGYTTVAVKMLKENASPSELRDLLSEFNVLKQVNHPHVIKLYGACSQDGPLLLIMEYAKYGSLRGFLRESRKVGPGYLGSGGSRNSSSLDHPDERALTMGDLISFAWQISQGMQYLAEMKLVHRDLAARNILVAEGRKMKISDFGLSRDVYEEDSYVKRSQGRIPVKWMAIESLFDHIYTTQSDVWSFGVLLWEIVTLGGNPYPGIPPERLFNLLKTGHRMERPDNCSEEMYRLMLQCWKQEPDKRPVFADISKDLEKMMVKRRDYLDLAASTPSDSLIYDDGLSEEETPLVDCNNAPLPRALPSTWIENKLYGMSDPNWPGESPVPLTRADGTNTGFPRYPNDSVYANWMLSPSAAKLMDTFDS

[45] = target: Casein kinase I isoform epsilon (Homo sapiens) (UniProt P49674); details: Compound concentration 1000.0 nM

Chain of Peripheral plasma membrane protein CASK (Homo sapiens) (O14936 whole entry): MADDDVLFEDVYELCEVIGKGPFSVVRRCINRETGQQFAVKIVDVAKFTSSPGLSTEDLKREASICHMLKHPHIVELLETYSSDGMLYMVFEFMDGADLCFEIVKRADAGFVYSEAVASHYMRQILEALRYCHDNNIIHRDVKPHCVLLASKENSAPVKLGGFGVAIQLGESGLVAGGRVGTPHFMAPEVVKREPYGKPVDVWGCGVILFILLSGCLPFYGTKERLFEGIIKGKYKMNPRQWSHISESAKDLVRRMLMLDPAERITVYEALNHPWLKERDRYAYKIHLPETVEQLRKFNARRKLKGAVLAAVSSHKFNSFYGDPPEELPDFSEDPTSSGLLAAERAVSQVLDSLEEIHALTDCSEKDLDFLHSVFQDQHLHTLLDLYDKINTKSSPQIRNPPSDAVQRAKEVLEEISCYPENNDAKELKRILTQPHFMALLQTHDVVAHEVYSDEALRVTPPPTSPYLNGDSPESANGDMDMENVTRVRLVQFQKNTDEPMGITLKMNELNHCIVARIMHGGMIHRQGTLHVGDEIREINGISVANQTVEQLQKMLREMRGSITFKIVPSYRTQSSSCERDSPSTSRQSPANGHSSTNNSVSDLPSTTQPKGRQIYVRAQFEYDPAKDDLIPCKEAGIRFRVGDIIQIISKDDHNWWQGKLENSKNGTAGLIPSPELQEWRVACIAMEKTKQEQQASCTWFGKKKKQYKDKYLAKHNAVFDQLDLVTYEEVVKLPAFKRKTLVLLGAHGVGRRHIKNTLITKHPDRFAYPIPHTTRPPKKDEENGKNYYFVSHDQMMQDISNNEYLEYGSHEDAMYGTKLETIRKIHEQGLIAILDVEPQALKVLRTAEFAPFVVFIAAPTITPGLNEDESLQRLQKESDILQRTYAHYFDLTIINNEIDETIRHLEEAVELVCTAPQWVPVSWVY

C[C@H](c1ccc(F)cc1)N(Cc1cccc(C(=O)O)c1)C(=O)c1cnc2ccccc2c1 [PF-05105679]
inactive: residual activity [1] 86% | residual activity [2] 100% | residual activity [3] 100% | residual activity [4] 92% | residual activity [5] 100% | residual activity [6] 100% | inhibition [7] 27.3% | residual activity [8] 72% | residual activity [9] 95% | residual activity [10] 80% | residual activity [11] 100% | residual activity [12] 100% | inhibition [13] 7.42% | residual activity [14] 100% | residual activity [15] 93% | inhibition [16] -1.19% | residual activity [17] 100% | residual activity [18] 100% | residual activity [19] 90% | inhibition [20] 7.61% | residual activity [21] 100% | residual activity [22] 100% | inhibition [23] 22% | residual activity [24] 100% | residual activity [25] 100% | residual activity [26] 96% | residual activity [27] 100% | residual activity [28] 100% | residual activity [29] 100% | residual activity [30] 66% | residual activity [31] 98% | residual activity [32] 91% | residual activity [33] 100% | residual activity [34] 89% | residual activity [35] 76% | residual activity [36] 100% | residual activity [37] 100% | residual activity [38] 100% | inhibition [39] -1.14% | residual activity [40] 100% | inhibition [41] 25% | residual activity [42] 100% | residual activity [43] 97% | residual activity [44] 100% | residual activity [45] 100%
